Results on 9 compounds are retold here after patent US4725598A, “Derivative of dihydroxybenzamide and a pharmaceutical composition having an anti-inflammatory activity” (priority 1983, dated 1988).

Structures are written as SMILES. Read-outs that look alike come from different tables or passages of the source. Some results are limits rather than exact numbers.

The subject of one series is adjuvant arthritis. The series is described as follows: Inhibitory activity of adjuvant arthritis. It counts as in vivo, male Lewis rats. The conditions noted are these: for Increment of the volume of hind paw after 21 days of injection (I1): at beginning of administration; for Increment of the volume of hind paw after 36 days of injection (I2) / Rate of inhibiting adjuvant arthritis: 14 days. The method, then:
The activity of the present compound in inhibiting the adjuvant arthritis was examined while using groups of male Lewis rats of 8 weeks after birth and according to the method of Fujihira et al. (refer to "OYO YAKURI", 5(2), 169, (1971)) as follows.
Groups of 8 rats were used, and to each rat of whole groups under anesthesia by ether, a Freund's complete adjuvant dissolved in mineral oil at a concentration of 0.6 mg/0.1 ml was injected intradermally into the trail thereof.
After 3 weeks of the injection, to each rat of a group an aqueous dispersion of one of the present compounds shown in Table 4 in an aqueous 0.3% solution of CMC was orally administered every day for 14 days, and to each of the control group, the aqueous 0.3% solution of CMC was administered in a similar manner, each rat of the positive control group being treated with the similar oral administration of prednisolone in the aqueous 0.3% solution of CMC. The volume of the hind paw of each rat was measured on the day of starting the administration and on the next day after finishing the administration.
The results of the test are shown in Table 4 as the increment of the volume of the hind paw and the rate of inhibiting the increase of the volume thereof.
The increment of the volume of the hind paw at the beginning of the administration, namely after 21 days of the injection of the complete adjuvant (I1), and the increment of that after the finishing of the injection, namely after 36 days of the injection of the complete adjuvant (I2) are respectively as follows.
wherein V0 is the volume of the hind paw just before the injection, V1 is that after 21 days of the injection and V2 is that after 36 days of the injection.
The rate of inhibiting the increase of the volume of the hind paw, namely the activity of treating the adjuvant arthritis is obtained by the following formula: [formula]

Series [1] concerns migration of polymorphonuclear leukocytes. The series is described as follows: Inhibition of migration of polymorphonuclear leukocytes, in vivo pouch-CMC method. Also on record: species or system male Donryu rats. How it is done: The activity of each of the present compounds in in vivo inhibiting the migration of polymorphonuclear leukocytes was examined by the pouch-CMC method presented by Ishikawa (refer to J. Pharmaceut. Soc., Japan, 88, 1472, 1968) using male Donryu rats.
After cutting the hairs on the back of each male Donryu rat at a 5 cm square, 5 ml of air were subcutaneously injected into the hair-cut position, and after 24 hours of the injection, 5 ml of a 0.2% solution of sodium carboxymethylcellulose in a saline was injected into the pouch made by the injected air.
After dividing the rats into 3 groups, an aqueous 0.2% solution of carboxymethylcellulose was orally administered to each rat of the first group at a rate of 1 ml/100 g body weight (as control), and each of the present compounds (Compounds Nos. 1, 2 and 4) was orally administered to each rat of the second group after suspending the compound in an aqueous 0.2% solution of carboxymethylcellulose. Each rat of the third group is orally administered with an aqueous solution of indomethacin as positive control.
After 3 and 6 hours of the injection, the exudates in the pouch were collected from each rat, and the number of polymorphonuclear leukocytes (hereinafter referred to as PMN) exudated was counted and, the results are shown in Table 2.

The test system of another series is platelet aggregation. The series is described as follows: Inhibitory activity of platelet aggregation (sodium arachidonate induced, platelet-rich plasma). It counts as cell-based. The conditions noted are these: Oryctolagus cuniculus, rabbit plasma, sodium arachidonate 400 μM, read-out: IC100 (concentration necessary for inhibiting platelet aggregation perfectly). The method, then: After collecting blood specimen from the auricular vein of a male rabbit of an ordinary race in the presence of citrate, the thus collected blood was subjected to centrifugation to obtain a platelet-rich plasma (PRP) and a platelet-poor plasma (PPP) therefrom. The plasma containing 300,000 platelets/μl was prepared by diluting the PRP with the PPP, and divided equally into two portions.
Into the first portion of the thus obtained plasma mixture, as control, dimethylsulfoxide was added, and then, an aqueous solution of sodium arachidonate as an aggregation agent prepared by dissolving thereof into a saline solution was added to the resultant mixture to adjust the final concentration of the arachidonate therein to 400 μM.
On the other hand, into the second portion thereof, a solution of each of the present compounds shown in Table 1 in dimethylsulfoxide was added, and then, the above-mentioned aqueous solution of sodium arachidonate was added to the resultant mixture.
The platelet aggregation reactions were measured with the aid of a platelet aggregation tracer (model PAT-4A, made by NIKO Bioscience Co., Ltd.) and its IC100 values (the concentration of an agent necessary for inhibiting platelet aggregation perfectly) are shown in Table 1.

Another series concerns granuloma formation. It counts as in vivo, male Donryu rats. The conditions noted are these: 10 days. The method, then:
The activity of the present compounds in inhibiting the granuloma formation was examined according to the method of Fujimura et al. (refer to "OYO YAKURI", 19(3), 329(1981)) while using male Donryu rats of 5 weeks after birth as follows.
(§1) After burying a paper disk of 13 mm in diameter and 0.26 mm in thickness immersed in an aqueous 2% solution of carboxymethylcellulose (hereinafter referred to as CMC) containing both dihydroxystreptomycin and penicillin (both of 10^6 unit at a rate of 0.1 mg/ml) into the back of each rat under anesthesia by ether, the rats were divided into four groups. To rats of the first group, an aqueous 0.3% solution of CMC was orally administered every day for 10 days, to rat of the second group, an aqueous dispersion of one of the present compounds shown in Table 3 in an aqueous 0.3% solution of CMC was orally administered every day for 10 days and to rat of the third and fourth groups, an aqueous 0.3% solution of CMC containing either indomethacin or prednisolone was orally administered every day for 10 days.
The rate of inhibiting the granuloma formation was obtained from the following formula: [formula] wherein T is the average weight of granuloma in the test group and C is the average weight of granuloma in the control group.

On the set-up of series [2]: species or system male Donryu rats. The conditions noted are these: rat, in vivo. How it is done:
as §1

On to `CCCCCCCCNC(=O)c1ccc(O)c(O)c1` [Compound No. 1, N-(n-octyl)-3,4-dihydroxybenzamide], for which the “Increment of the volume of hind paw after 21 days of injection (I1)” value (“Increment of the volume of hind paw … (I1)” below) in the series on adjuvant arthritis (25 mg/kg/day group) is 1.29 mL; in the series on adjuvant arthritis (50 mg/kg/day group), 1.28 mL. The results for the “Increment of the volume of hind paw after 36 days of injection (I2)” value (“Increment of the volume of hind paw … (I2)” below) in the series on adjuvant arthritis (25 mg/kg/day oral) and in the series with adjuvant arthritis (50 mg/kg/day oral) were 0.65 mL and 0.59 mL, respectively. Further, the “Rate of inhibiting adjuvant arthritis” value in the series with adjuvant arthritis (25 mg/kg/day oral) came out at 50%; with adjuvant arthritis (50 mg/kg/day oral), 54%. Besides, the “Inhibition rate of exudation of PMN” value in series [1] (after 3 hr, 50 mg/kg oral) turned out to be 51.0%; in series [1] (after 6 hr, 50 mg/kg oral), 22.9%. The “Number of PMN in exudated liquid” value in series [1] (after 3 hr, 50 mg/kg oral) was 2.4 (number/mm^3) × 10^3; in series [1] (after 6 hr, 50 mg/kg oral) it was 16.8 (number/mm^3) × 10^3. Further, the IC100 in the series on platelet aggregation was below 18 µM. Moreover, the “Rate of inhibition of granuloma formation” value in the series on granuloma formation (25 mg/kg/day oral) is reported as 53%; with granuloma formation (50 mg/kg/day oral), 72%. Besides, the “Weight of dried granuloma” value in the series with granuloma formation (25 mg/kg/day oral) was found to be 135 mg; with granuloma formation (50 mg/kg/day oral), 80 mg.
As for `O=C(Nc1ccccn1)c1ccc(O)c(O)c1` [Compound No. 2, N--(2-pyridyl)-3,4-dihydroxybenzamide], the results for the “Increment of the volume of hind paw … (I1)” value in the series on adjuvant arthritis (25 mg/kg/day group) and in the series with adjuvant arthritis (50 mg/kg/day group) were 1.32 mL and 1.30 mL, respectively. Further, the “Increment of the volume of hind paw … (I2)” value in the series with adjuvant arthritis (25 mg/kg/day oral) was 0.51 mL; with adjuvant arthritis (50 mg/kg/day oral), 0.53 mL. The “Rate of inhibiting adjuvant arthritis” value in the series with adjuvant arthritis (25 mg/kg/day oral) is 61%; in the series on adjuvant arthritis (50 mg/kg/day oral) it was 59%. In addition, the “Inhibition rate of exudation of PMN” value in series [1] (after 3 hr, 50 mg/kg oral) worked out at 53.1%; in series [1] (after 6 hr, 50 mg/kg oral) it was 37.6%. The “Number of PMN in exudated liquid” value is given as 2.3 (number/mm^3) × 10^3 in series [1] (after 3 hr, 50 mg/kg oral) and 13.6 (number/mm^3) × 10^3 in series [1] (after 6 hr, 50 mg/kg oral). Besides, the IC100 in the series on platelet aggregation is 25 µM. In addition, the “Rate of inhibition of granuloma formation” value was determined as 64% with granuloma formation (25 mg/kg/day oral) and 76% with granuloma formation (50 mg/kg/day oral). For the same compound, the “Weight of dried granuloma” value in the series with granuloma formation (25 mg/kg/day oral) is listed as 98 mg; in the series on granuloma formation (50 mg/kg/day oral), 69 mg.
With `CCCCNC(=O)c1ccc(O)c(O)c1` [compound 3, N--(n-butyl)-3,4-dihydroxybenzamide], in the series on platelet aggregation, the IC100 was 45 µM.
Turning to `O=C(c1ccc(O)c(O)c1)N1CCCCC1` [compound 4, 3,4-dihydroxybenzpiperidide], in series [1] (after 3 hr, 50 mg/kg oral), the “Inhibition rate of exudation of PMN” value was 46.9% and the “Number of PMN in exudated liquid” value is listed as 2.6 (number/mm^3) × 10^3. For the same compound, in series [1] (after 6 hr, 50 mg/kg oral), the “Inhibition rate of exudation of PMN” value is 25.2% and the “Number of PMN in exudated liquid” value is listed as 16.3 (number/mm^3) × 10^3. Also, the IC100 in the series with platelet aggregation came to 65 µM. Besides, in the series with granuloma formation (25 mg/kg/day oral), the “Rate of inhibition of granuloma formation” value stood at 49% and the “Weight of dried granuloma” value amounted to 146 mg. In the series with granuloma formation (50 mg/kg/day oral), the “Rate of inhibition of granuloma formation” value was 65% and the “Weight of dried granuloma” value was 101 mg.
For `CCCCCCCCCCCCNC(=O)c1ccc(O)c(O)c1` [compound 5, N--(n-dodecyl)-3,4-dihydroxybenzamide], in the series with platelet aggregation, the IC100 is below 18 µM.
With `O=C(NCCCc1ccccc1)c1ccc(O)c(O)c1` [compound 6, N--(ω-phenylpropyl)-3,4-dihydroxybenzamide], the IC100 in the series with platelet aggregation came to 80 µM.
`CN1CCN(C(=O)c2ccc(O)c(O)c2)CC1` [compound 7, 3,4-dihydroxybenz-N--methylpiperazide]: the IC100 in the series on platelet aggregation stood at 300 µM.
On to `COc1ccc2c(c1)c(CC(=O)O)c(C)n2C(=O)c1ccc(Cl)cc1` [indomethacin, reference compound], for which, in series [1] (after 3 hr, 3 mg/kg oral), the “Inhibition rate of exudation of PMN” value turned out to be 20.4% and the “Number of PMN in exudated liquid” value was 3.9 (number/mm^3) × 10^3. In addition, in series [1] (after 6 hr, 3 mg/kg oral), the “Inhibition rate of exudation of PMN” value is 22.0% and the “Number of PMN in exudated liquid” value is on record as 17.0 (number/mm^3) × 10^3. Besides, in series [2], the “autopsy findings, gastric” value was “hemorrhage from the gastric mucosa and formation of stomach ulcer were found”. Also, in the series with granuloma formation (3 mg/kg/day oral), the “Rate of inhibition of granuloma formation” value was 39% and the “Weight of dried granuloma” value was found to be 175 mg.
In the case of `C[C@]12C=CC(=O)C=C1CC[C@@H]1[C@@H]2[C@@H](O)C[C@@]2(C)[C@H]1CC[C@]2(O)C(=O)CO` [prednisolone, reference compound], the “Increment of the volume of hind paw … (I1)” value in the series on adjuvant arthritis (3 mg/kg/day group) was found to be 1.27 mL. Moreover, in the series with adjuvant arthritis (3 mg/kg/day oral), the “Increment of the volume of hind paw … (I2)” value is 0.71 mL and the “Rate of inhibiting adjuvant arthritis” value came to 44%. Besides, in series [2], the “autopsy findings, gastric” value was “hemorrhage from the gastric mucosa and formation of stomach ulcer were found”; the “autopsy findings, thymus” value was “atrophy of the thymus was significantly found”. In addition, in the series on granuloma formation (3 mg/kg/day oral), the “Rate of inhibition of granuloma formation” value stood at 45% and the “Weight of dried granuloma” value was determined as 158 mg.
